Test results as given in patent US20140369933A1, “FLUORINE-18 LABELED HYDROGEN ION PROBES” (The Trustees of The University of Pennsylvania, priority 2011, published 2014).
Where two headings read alike, the source gives them in different places.

What was measured:
[1] = UV-VIS absorption maxima of indicator forms; assay type: physicochemical; settings: for absorption maximum of basic form: basic form of indicator; for absorption maximum of acidic form: acidic form of indicator
Protocol: (§1) The values of pKa of the indicators were determined by UV-VIS spectroscopy from the pH dependence of absorption of their basic forms and other spectroscopic investigations of the products were performed by Beckman-Coulter DU 530 spectrophotometer using acetate, phosphate, TRIZMA, and borate buffers for different values of pH. The number of fluorine atoms in the molecule was also determined by comparison of the ratio of sample activity to absorption of the basic forms of indicators.

[2] = pKa of the indicators by UV-VIS spectroscopy from pH dependence of absorption of basic forms
Protocol: as §1

[3] = parental compound, intravenous injection, renal excretion; cited from earlier work
[4] = UV-VIS, pH dependence of absorption of basic form, acetate, phosphate, TRIZMA, borate buffers

| Molecule | absorption maximum of basic form [1] | pKa [2] | pKa [2, 4] | absorption maximum of acidic form [1] | half-life, mostly renal clearance [3] |
| --- | --- | --- | --- | --- | --- |
| O=C1OC(c2ccc(O)c3ccccc23)(c2ccc(O)c3ccccc23)c2ccccc21 [naphtholphthalein, reference compound] | 653 nm | 7.95 |  |  |  |
| trifluorophenol red [TFPR] | 572 nm |  |  |  |  |
| O=C1OC(c2ccc(O)cc2)(c2ccc(O)cc2)c2ccccc21 [phenolphthalein, reference compound] | 553 nm | 9.75 |  |  |  |
| O=C1OC(c2ccc(O)cc2)(c2ccc(O)c([18F])c2)c2ccccc21 (stereo not drawn) [monofluorophenolphthalein] | 558 nm | 9.3 |  |  |  |
| Cc1cc(O)c(C(C)C)cc1C1(c2cc(C(C)C)c(O)cc2C)OS(=O)(=O)c2ccccc21 [Thymol Blue, thymolsulfonphthalein, reference compound] | 597 nm |  | 8.85 |  |  |
| O=C1OC(c2cc([18F])c(O)c3ccccc23)(c2cc([18F])c(O)c3ccccc23)c2ccccc21 [difluoronaphtholphthalein] | 668 nm | 7.2 |  |  |  |
| Cc1cc(C2(c3ccc(O)c(C)c3)OS(=O)(=O)c3ccccc32)ccc1O [Cresol Red, ortho-cresolsulfonphthalein, reference compound] | 572 nm |  | 8.2 |  |  |
| Cc1c(C2(c3cc(C(C)C)c(O)c([18F])c3C)OS(=O)(=O)c3ccccc32)cc(C(C)C)c(O)c1[18F] [DFTB, difluorothymolsulfonphthalein] | 605 nm | 7.65 |  |  |  |
| O=C1OC(c2ccc(O)c([18F])c2)(c2ccc(O)c([18F])c2)c2ccccc21 [difluorophenolphthalein] | 564 nm | 8.7 |  |  |  |
| Cc1cc(O)ccc1C1(c2ccc(O)cc2C)OS(=O)(=O)c2ccccc21 [CP, cresolsulfonphthalein, reference compound] |  |  | 8.3 |  |  |
| Cc1cc(O)c([18F])cc1C1(c2cc([18F])c(O)c([18F])c2C)OS(=O)(=O)c2ccccc21 (stereo not drawn) [TFCP, trifluorocresolsulfonphthalein] | 592 nm | 6.4 |  |  |  |
| difluorocresolsulfonphthalein [DFCP] | 589 nm |  |  |  |  |
| O=S1(=O)OC(c2ccc(O)c([18F])c2)(c2cc([18F])c(O)c([18F])c2)c2ccccc21 (stereo not drawn) [TFPR, trifluorophenol red] | 572 nm | 5.9 |  |  |  |
| monofluorocresolsulfonphthalein [MFCP] | 582 nm |  |  |  |  |
| monofluoronaphtholphthalein | 660 nm |  | 7.7 |  |  |
| O=S1(=O)OC(c2ccc(O)cc2)(c2ccc(O)c([18F])c2)c2ccccc21 (stereo not drawn) [MFPR, monofluorophenol red] | 564 nm | 7.3 |  | 436 nm |  |
| O=S1(=O)OC(c2ccc(O)c([18F])c2)(c2ccc(O)c([18F])c2)c2ccccc21 [DFPR, difluorophenol red] | 570 nm | 6.4 |  | 428 nm |  |
| Cc1cc(O)c(C(C)C)cc1C1(c2cc(C(C)C)c(O)c([18F])c2C)OS(=O)(=O)c2ccccc21 (stereo not drawn) [MFTB, MonoFluoro Thymol Blue] | 599 nm | 8.25 |  |  |  |
| Cc1cc(C2(c3cc(C)c(O)c([18F])c3)OS(=O)(=O)c3ccccc32)cc([18F])c1O [DFCR, DiFluoroCresol Red] | 582 nm | 6.8 |  |  |  |
| Cc1cc(C2(c3cc(C)c(O)c([18F])c3)OS(=O)(=O)c3ccccc32)ccc1O (stereo not drawn) [MFCR, MonoFluoroCresol Red] | 576 nm | 7.6 |  |  |  |
| O=S1(=O)OC(c2ccc(O)cc2)(c2ccc(O)cc2)c2ccccc21 [Phenol Red, phenolsulfonphthalein, reference compound] | 558 nm | 7.9 |  | 433 nm | 20 to 30 min |
